Among the data in ChEMBL document CHEMBL4699474, “Dimeric Tetrahydroanthracene Regioisomers and Their Monomeric Precursor Produced by Streptomyces fumigatiscleroticus HDN10255” (J Nat Prod, 2020) are IC50 values, retold here.

What all share (type): functional, cell-based
One experiment has as its system K562. As to the kind of experiment: Cytotoxicity against human K562 cells assessed as reduction in cell viability after 48 hrs by MTT assay. The settings on record: K562, 48 h. (Tetrazolium dyes change colour on reduction, which living cells bring about.)
The test system of a further experiment is HCT-116. Put plainly: Cytotoxicity against human HCT-116 cells assessed as reduction in cell viability after 48 hrs by SRB assay. To be noted: HCT-116, 48 h. A general note: In SRB staining, fixed cells bind dye roughly in proportion to their protein.
The test system of another experiment is HeLa. As to the kind of experiment: Cytotoxicity against human HeLa cells assessed as reduction in cell viability after 48 hrs by SRB assay.
Another experiment has as its system HL-60. Put plainly: Cytotoxicity against human HL-60 cells assessed as reduction in cell viability after 48 hrs by MTT assay. The settings on record: HL-60, 48 h.

Counter-ions that a name gives are not always drawn.

Turning to `COc1cccc2c1C(=O)c1c(O)c3c(c(O)c1C2=O)C[C@@](O)(C(=O)CO)C[C@@H]3O[C@H]1C[C@H](N)[C@H](O)[C@H](C)O1` [DOXORUBICIN HYDROCHLORIDE], the IC50 – broadly, the point on the concentration scale where inhibition reaches its midpoint – with K562 worked out at 0.2 µM.

`CC(=O)[C@H]1c2cc3c(-c4c5c(c(O)c6c(O)cccc46)C(=O)C[C@](C)(O)[C@H]5C(C)=O)ccc(O)c3c(O)c2C(=O)C[C@]1(C)O`: the IC50 in the experiment with HCT-116 was > 10 µM; in the experiment on HeLa, 5.1 µM; in the experiment with K562, 10 µM; in the experiment on HL-60, 6.2 µM.

In the case of `CC(=O)[C@H]1c2cc3cccc(O)c3c(O)c2C(=O)C[C@]1(C)O`, the 50% inhibitory concentration (IC50) in the experiment with HCT-116, in the experiment on HeLa, in the experiment with K562 and in the experiment with HL-60 was > 10 µM in each case.

`CC(=O)[C@H]1c2cc3c(-c4ccc(O)c5c(O)c6c(cc45)[C@H](C(C)=O)[C@@](C)(O)CC6=O)ccc(O)c3c(O)c2C(=O)C[C@]1(C)O`: the IC50 in the experiment with HCT-116, in the experiment with HeLa, in the experiment on K562 and in the experiment with HL-60 was > 10 µM each time.

Consider `CC(=O)[C@H]1c2c(c(O)c3c(O)cccc3c2-c2c3c(c(O)c4c(O)cccc24)C(=O)C[C@](C)(O)[C@H]3C(C)=O)C(=O)C[C@]1(C)O`, for which the IC50 in the experiment with HCT-116 was > 10 µM; in the experiment with HeLa, 1.8 µM; with K562 it was 5.1 µM; with HL-60, > 10 µM.

`CC(=O)[C@H]1c2cc3ccc(-c4c5c(c(O)c6c(O)cccc46)C(=O)C[C@](C)(O)[C@H]5C(C)=O)c(O)c3c(O)c2C(=O)C[C@]1(C)O`: the half-inhibitory concentration (IC50) in the experiment on HCT-116, in the experiment with HeLa, with K562 and in the experiment with HL-60 was > 10 µM in each case.
